{
  "source": "paper PMC3430861",
  "about": "“The pharmacological profile of ELIC, a prokaryotic GABA-gated receptor” (Neuropharmacology, 2012)",
  "key": {"ELIC [1]": {"target": "T1, ELIC (Dickeya chrysanthemi, UniProt P0C7B7, INS163G)", "T1 construct": "expressed in transfected cells; host or cells: Xenopus laevis oocytes injected with cRNA", "assay": "cell-based", "type": "cell-based, Erwinia chrysanthemi", "method": "Xenopus laevis oocyte-positive females were purchased from NASCO (Fort Atkinson, Wisconsin, USA) and maintained according to standard methods.\n(§1) The ELIC sequence (Genbank accession number POC7B7) was purchased from Genscript as a synthetic gene with optimized codon usage for expression in Escherichia coli. […] Stage V and VI oocytes were injected with 20 ng cRNA, and currents recorded 1–3 days post-injection."}, "[2]": {"tested_on": "RDL, a GABA-activated insect receptor", "design": "method as in McGonigle and Lummis, 2010", "settings": "ref McGonigle and Lummis, 2010, cited from earlier work"}, "ELIC [3]": {"target": "T2, ELIC (Dickeya chrysanthemi, UniProt P0C7B7)", "T2 sequence (P0C7B7 8-321)": "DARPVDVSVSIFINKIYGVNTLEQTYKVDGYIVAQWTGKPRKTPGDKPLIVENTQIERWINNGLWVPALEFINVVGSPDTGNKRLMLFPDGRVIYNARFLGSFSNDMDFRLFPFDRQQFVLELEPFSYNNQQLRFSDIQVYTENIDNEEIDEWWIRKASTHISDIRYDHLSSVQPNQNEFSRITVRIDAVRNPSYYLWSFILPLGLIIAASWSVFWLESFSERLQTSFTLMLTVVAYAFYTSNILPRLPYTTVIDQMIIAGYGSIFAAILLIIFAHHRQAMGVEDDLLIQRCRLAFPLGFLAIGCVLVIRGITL", "assay": "Inhibition of cysteamine-induced ELIC responses", "type": "cell-based, Erwinia chrysanthemi", "settings": "data not shown"}, "ELIC [4]": {"target": "T2, ELIC", "assay": "cell-based", "type": "cell-based, Erwinia chrysanthemi", "method": "Xenopus laevis oocyte-positive females were purchased from NASCO (Fort Atkinson, Wisconsin, USA) and maintained according to standard methods. Harvested stage V–VI Xenopus oocytes were washed in four changes of ND96 (96 mM NaCl, 2 mM KCl, 1 mM MgCl2, 5 mM HEPES, pH 7.5), de-folliculated in 1.5 mg ml^−1 collagenase Type 1A for approximately 2 h, washed again in four changes of ND96 and stored in ND96 containing 2.5 mM sodium pyruvate, […], 0.7 mM theophylline.\nas §1"}, "GLIC": {"tested_on": "GLIC", "design": "method as in Alqazzaz et al., 2011", "settings": "comparison ELIC vs GLIC; ref Alqazzaz et al., 2011; cited from earlier work"}},
  "note": "Where two headings read alike, the source gives them in different places.",
  "data": [
    {"smiles": "O=C(O)CCCO", "note": "[γ-hydroxybutyric acid]", "values": [
      {"measurement": "concentration required to activate ELIC", "setting": "ELIC [1]", "result": "> 10", "unit": "mM"},
      {"measurement": "% of Rmax at 100 mM", "setting": "ELIC [1]; 100 mM, Rmax = maximal current relative to 10mM GABA", "result": "8.2 ± 3% of Rmax at 100 mM"},
      {"measurement": "effect on RDL", "setting": "[2]", "result": "no effect"}
    ]},
    {"smiles": "CC(N)C12CC3CC(CC(C3)C1)C2", "note": "(stereo not drawn) [Rimantadine]", "values": [
      {"measurement": "inhibition of cysteamine-induced responses compared to inhibition of GABA-induced responses", "setting": "ELIC [3]", "result": "no significant differences"},
      {"measurement": "inhibition of ELIC (yes/no)", "setting": "ELIC [4]", "result": "inhibiting both receptors"},
      {"measurement": "nH", "setting": "ELIC [4]", "result": "1.0 ± 0.2"},
      {"measurement": "IC50", "setting": "ELIC [4]; IC50", "result": 54, "unit": "µM"},
      {"measurement": "IC50", "setting": "ELIC [4]; pIC50 (Mean ± SEM)", "result": 53.7, "unit": "µM"},
      {"measurement": "inhibition of GLIC (yes/no)", "setting": "GLIC", "result": "inhibiting both receptors"}
    ]},
    {"smiles": "NCCCCC(=O)O", "note": "[5-aminovaleric acid]", "values": [
      {"measurement": "concentration required to activate ELIC", "setting": "ELIC [1]", "result": "> 10", "unit": "mM"},
      {"measurement": "EC50", "setting": "[2]; RDL", "result": 1100, "unit": "µM"},
      {"measurement": "Rmax", "setting": "[2]; RDL", "result": 0.85}
    ]},
    {"smiles": "C=C(C)[C@@H]1[C@H]2OC(=O)[C@@H]1[C@]1(O)C[C@H]3O[C@]34C(=O)O[C@H]2[C@]14C", "note": "[Picrotoxinin]", "values": [
      {"measurement": "inhibition of cysteamine-induced responses compared to inhibition of GABA-induced responses", "setting": "ELIC [3]", "result": "no significant differences"},
      {"measurement": "nH", "setting": "ELIC [4]; Hill coefficient of inhibition curve", "result": "1.2 ± 0.6"},
      {"measurement": "IC50", "setting": "ELIC [4]; IC50, wild type ELIC, at the GABA EC50 (1.6 mM)", "result": 96, "unit": "µM"},
      {"measurement": "inhibition of ELIC (yes/no)", "setting": "ELIC [4]; comparison ELIC vs GLIC", "result": "inhibiting both receptors"},
      {"measurement": "IC50", "setting": "ELIC [4]; pIC50 (Mean ± SEM), wild type ELIC, at the GABA EC50 (1.6 mM)", "result": 87.1, "unit": "µM"},
      {"measurement": "inhibition of GLIC (yes/no)", "setting": "GLIC", "result": "inhibiting both receptors"}
    ]}
  ]
}
